From patent US8865675B2, “Compositions and methods for silencing apolipoprotein B” (Protiva Biotherapeutics, Inc., priority 2010, dated 2014)

Legend:
liver ApoB mRNA = experiment: Liver ApoB mRNA knockdown after IV SNALP administration, branched DNA (QuantiGene) assay relative to GAPDH; type: in vivo, Balb/c mice; details: for KD50 compared to SNALP containing the C2K benchmark cationic lipid: 48 h (FIG. 2, FIG. 3); for ApoB silencing activity compared to SNALP containing C2K when administered at the same dose: 0.033 or 0.05 mg/kg IV, 48 h (Table 6); for ApoB knockdown relative to PBS control (%): 1:57 SNALP with ApoB-10164 siRNA, ApoB:GAPD, 48 h, n = 3
Procedure: (§1) For dose response studies, SNALP formulations were administered by IV injection at 0.01 mg/kg, 0.033 mg/kg, or 0.1 mg/kg into female Balb/c mice (n=3 per group). Liver ApoB mRNA levels were evaluated at 48 hours after SNALP administration by a branched DNA assay (QuantiGene assay) to assess ApoB mRNA relative to the housekeeping gene GAPDH.
as §1, with “Each” for “For dose response studies,”, “formulation (6:1 L:D) was” for “formulations were”, “intravenous (IV)” for “IV”, “at” for “at 0.01 mg/kg, 0.033 mg/kg, or”
SNALP formulations were administered by IV injection at 0.05 mg/kg into female Balb/c mice (n=3 per group). Liver ApoB mRNA levels were evaluated at 48 hours after SNALP administration by a branched DNA assay (QuantiGene assay) to assess ApoB mRNA relative to the housekeeping gene GAPDH.
For these dose response studies, SNALP formulations were administered by IV injection at 0.05, 0.10, or 0.25 mg/kg for DLinDMA and at 0.01, 0.025, or 0.05 mg/kg for C2K or MC3 into female Balb/c mice (n=4 per group). Liver ApoB mRNA levels were evaluated at 48 hours after SNALP administration (Error bars=SD).
SNALP formulations were administered by IV injection at 0.033 mg/kg or at 0.05 mg/kg into Balb/c mice (n=3 per group). Liver ApoB mRNA levels were evaluated at 48 hours after SNALP administration by a branched DNA assay (QuantiGene assay) to assess ApoB mRNA relative to the housekeeping gene GAPDH.

[1] = Tolerability assessments of SNALP in mice (liver enzymes, body weight, neutrophil to lymphocyte ratio etc.); type: in vivo
[2] = 1:57 SNALP, 0.01, 0.033 or 0.1 mg/kg IV, female Balb/c mice, 48 h (FIG. 1, FIG. 3)
[3] = 1:57 SNALP, 0.01, 0.033 or 0.1 mg/kg IV, female Balb/c mice

With `CCCCC/C=C\C/C=C\CCCCCCCCC(CCCCCCCC/C=C\C/C=C\CCCCC)OC(=O)CCCN(C)C` [Compound 1, (6Z,9Z,28Z,31Z)-heptatriaconta-6,9,28,31-tetraen-19-yl 4-(dimethylamino)butanoate] the “potency versus the corresponding DLinDMA or C2K SNALP formulations, comparison of KD50 values” (liver ApoB mRNA; 1:57 SNALP containing siApoB-8 or siApoB-10, female Balb/c mice, 48 h (FIG. 6)) was “more potent”, the “ApoB silencing activity compared to SNALP containing the C2K benchmark cationic lipid” value (liver ApoB mRNA; [2]) was “improved ApoB silencing activity” and the “KD50 compared to SNALP containing the C2K benchmark cationic lipid” value (liver ApoB mRNA; [3]) was “substantially lower KD50 values”. For the same compound, the “ApoB silencing activity compared to SNALP containing C2K when administered at the same dose” value (liver ApoB mRNA; 1:57 SNALP, Balb/c mice) was “unexpectedly improved ApoB silencing activity” and the “potency in silencing ApoB expression in vivo compared to SNALP containing DLin-C2K-DMA (C2K) or DLinDMA” value (liver ApoB mRNA; 1:57 lipid particle) was “unexpectedly more potent”.
In the case of `CC/C=C\C/C=C\C/C=C\CCCCCCCCC(CCCCCCCC/C=C\C/C=C\C/C=C\CC)OC(=O)CCCN(C)C` [Compound 4, LenMC3], the “ApoB silencing activity compared to SNALP containing the C2K benchmark cationic lipid” value (liver ApoB mRNA; [2]) is reported as “improved ApoB silencing activity”, the “KD50 compared to SNALP containing the C2K benchmark cationic lipid” value (liver ApoB mRNA; [3]) is reported as “substantially lower KD50 values” and the “ApoB silencing activity compared to SNALP containing C2K when administered at the same dose” value (liver ApoB mRNA; 1:57 SNALP, Balb/c mice) is reported as “unexpectedly improved ApoB silencing activity”.
With `CCCCC/C=C\C/C=C\C/C=C\CCCCCC(CCCCC/C=C\C/C=C\C/C=C\CCCCC)OC(=O)CCCN(C)C` [Compound 8, γ-LenMC3] the “ApoB silencing activity compared to SNALP containing the C2K benchmark cationic lipid” value (liver ApoB mRNA; [2]) was “improved ApoB silencing activity”, the “KD50 compared to SNALP containing the C2K benchmark cationic lipid” value (liver ApoB mRNA; [3]) was “substantially lower KD50 values” and the “ApoB silencing activity compared to SNALP containing C2K when administered at the same dose” value (liver ApoB mRNA; 1:57 SNALP, Balb/c mice) was “unexpectedly improved ApoB silencing activity”.
With `CCCCC/C=C\C/C=C\CCCCCCCCC(CCCCCCCC/C=C\C/C=C\CCCCC)OC(=O)N(C)CCCN(C)C` [Compound 10, MC3MC] the “ApoB knockdown relative to PBS control (%)” value (liver ApoB mRNA; 0.033 mg/kg IV, Balb/c mice) was −50%.
In the case of `CCCCC/C=C\C/C=C\CCCCCCCCC(CCCCCCCC/C=C\C/C=C\CCCCC)OCCCN(C)C` [Compound 13, 3-((6Z,9Z,28Z,31Z)-heptatriaconta-6,9,28,31-tetraen-19-yloxy)-N,N-dimethylpropan-1-amine], the “ApoB silencing activity compared to SNALP containing the C2K benchmark cationic lipid” value (liver ApoB mRNA; 1:57 SNALP, 0.05 mg/kg IV, female Balb/c mice, 48 h (FIG. 5)) is reported as “unexpectedly improved ApoB silencing activity” and the “ApoB silencing activity compared to SNALP containing C2K when administered at the same dose” value (liver ApoB mRNA; 1:57 SNALP, Balb/c mice) is reported as “unexpectedly improved ApoB silencing activity”.
For `CCCCC/C=C\C/C=C\CCCCCCCCC(CCCCCCCC/C=C\C/C=C\CCCCC)OCCCCN(C)C` [Compound 15, MC4 Ether], the “ApoB silencing activity compared to SNALP containing C2K when administered at the same dose” value (liver ApoB mRNA; 1:57 SNALP, Balb/c mice) was “unexpectedly improved ApoB silencing activity”.
For `CCCCC/C=C\C/C=C\CCCCCCCCCC(CCCCCCC/C=C\C/C=C\CCCCC)OC(=O)N(CCCCCC)CCCN(C)C` (stereo not shown) [Compound 27, (6Z,9Z,28Z,31Z)-heptatriaconta-6,9,28,31-tetraen-18-yl 3-(dimethylamino)propyl(hexyl)carbamate], the “ApoB silencing activity compared to SNALP containing C2K when administered at the same dose” value (liver ApoB mRNA; 1:57 SNALP, Balb/c mice) was “unexpectedly improved ApoB silencing activity”.
In the case of `CC/C=C\CCCN(CCCN(C)C)C(=O)OC(CCCCCCC/C=C\C/C=C\CCCCC)CCCCCCCCC/C=C\C/C=C\CCCCC` (stereo not shown) [Compound 28, (6Z,9Z,28Z,31Z)-heptatriaconta-6,9,28,31-tetraen-18-yl 3-(dimethylamino)propyl((Z)-hept-4-enyl)carbamate], the “ApoB silencing activity compared to SNALP containing C2K when administered at the same dose” value (liver ApoB mRNA; 1:57 SNALP, Balb/c mice) is reported as “unexpectedly improved ApoB silencing activity”.
With `CC/C=C\C/C=C\C/C=C\CCCCCCCCC(CCCCCCCC/C=C\C/C=C\C/C=C\CC)OCCCCN(C)C` [Compound 35, 4-((3Z,6Z,9Z,28Z,31Z,34Z)-heptatriaconta-3,6,9,28,31,34-hexaen-19-yloxy)-N,N-dimethylbutan-1-amine] the “ApoB silencing activity compared to SNALP containing C2K when administered at the same dose” value (liver ApoB mRNA; 1:57 SNALP, Balb/c mice) was “unexpectedly improved ApoB silencing activity”.
For `CCC1CC1CC1CC1CC1CC1CCCCCCCCC1(CCCCCCCCC2CC2CC2CC2CC2CC2CC)OCC(CCN(C)C)O1` (stereo not shown) [Compound 46, CP-DLen-C2K-DMA], the “potency in silencing ApoB mRNA expression” value (liver ApoB mRNA; 1:57 SNALP, 0.01, 0.033 or 0.1 mg/kg IV, female Balb/c mice, 48 h (FIG. 3)) was “considerable potency”, the “body weight loss compared to mice administered SNALP containing C2K” value ([1]; mouse, in vivo) was “less body weight loss” and the “increase in liver enzyme levels compared to mice administered SNALP containing C2K” value ([1]; mouse, in vivo) was “lower increase in liver enzyme levels”. For the same compound, the “neutrophil to lymphocyte ratio compared to mice administered SNALP containing C2K” value ([1]; mouse, in vivo) was “more favorable neutrophil to lymphocyte ratio” and the “toxicity profile compared to SNALP containing C2K” value ([1]; various tolerability assessments in vivo) was “unexpectedly more favorable toxicity profile”.
With “(6Z,9Z,28Z,31Z)-heptatriaconta-6,9,28,31-tetraen-18-yl 2-(dimethylamino)ethyl(ethyl)carbamate [Compound 29]” the “ApoB knockdown relative to PBS control (%)” value (liver ApoB mRNA; 0.05 mg/kg IV, Balb/c mice) was −59%.
For “siApoB-10: APOB siRNA of sense strand SEQ ID NO: 4 and antisense strand SEQ ID NO: 11 with 2′OMe nucleotides (sense AGNGNCANCACACNNAANACC; antisense UAUUCAGUGUGAUGACACUUG; 2'OMe nucleotides, chemistry not fully specified)”, the “silencing activity of more highly 2′OMe-modified APOB siRNA relative to siApoB-8” value (liver ApoB mRNA; modifications increased from 7 in siApoB-8 to 13 in siApoB-10, 1:57 SNALP, Balb/c mice, 48 h (FIG. 6)) was “does not decrease activity”.
